# The kinase profiling compilation of Christmann-Franck et al. (2016)
# Columns and labels:
# Experiment in all cases: Caliper, Mobility shift assay off-chip
# Details in all cases: compound 10.0 µM
# ZAP70 (human) = ZAP70 (human) (UniProt P43403)
# IGF1R (human) = IGF1R (human) (UniProt P08069)
# ROCK1 (human) = ROCK1 (human) (UniProt Q13464)
# PRKCI (human) = PRKCI (human) (UniProt P41743)
# RIPK2 (human) = RIPK2 (human) (UniProt O43353)
# MAPK8 (human) = MAPK8 (human) (UniProt P45983)
# MAPK13 (human) = MAPK13 (human) (UniProt O15264)
# PIM2 (human) = PIM2 (human) (UniProt Q9P1W9)
# CHEK1 (human) = CHEK1 (human) (UniProt O14757)
# PIM1 (human) = PIM1 (human) (UniProt P11309)
# BRSK2 (human) = BRSK2 (human) (UniProt Q8IWQ3)
# PRKCG (human) = PRKCG (human) (UniProt P05129)
# CDK2 CCNA2 (human) = CDK2 CCNA2 (human) (UniProt P24941+P20248)
# EPHA2 (human) = EPHA2 (human) (UniProt P29317)
# EGFR (human) = EGFR (human) (UniProt P00533)
# KDR (human) = KDR (human) (UniProt P35968)
# MAPK12 (human) = MAPK12 (human) (UniProt P53778)
# RPS6KA1 KD1 KD2 (human) = RPS6KA1 KD1 KD2 (human) (UniProt Q15418)
# RPS6KA5 KD1 KD2 (human) = RPS6KA5 KD1 KD2 (human) (UniProt O75582)
# FLT3 (human) = FLT3 (human) (UniProt P36888)
# AKT1 (human) = AKT1 (human) (UniProt P31749)
# NEK6 (human) = NEK6 (human) (UniProt Q9HC98)
# MAP3K7 (human) = MAP3K7 (human) (UniProt O43318)
# PLK3 (human) = PLK3 (human) (UniProt Q9H4B4)
# FGFR1 (human) = FGFR1 (human) (UniProt P11362)
# PRKCA (human) = PRKCA (human) (UniProt P17252)
# FGFR3 (human) = FGFR3 (human) (UniProt P22607)
# MAPK14 (human) = MAPK14 (human) (UniProt Q16539)
# RAF1 (human) = RAF1 (human) (UniProt P04049)
# MAPKAPK5 (human) = MAPKAPK5 (human) (UniProt Q8IW41)
# SRC (human) = SRC (human) (UniProt P12931)
# KIT (human) = KIT (human) (UniProt P10721)
# ALK (human) = ALK (human) (UniProt Q9UM73)
# MAPK11 (human) = MAPK11 (human) (UniProt Q15759)
# BTK (human) = BTK (human) (UniProt Q06187)
# NEK2 (human) = NEK2 (human) (UniProt P51955)
# PAK4 (human) = PAK4 (human) (UniProt O96013)
# RPS6KB1 (human) = RPS6KB1 (human) (UniProt P23443)
# MAPKAPK2 (human) = MAPKAPK2 (human) (UniProt P49137)
# TEK (human) = TEK (human) (UniProt Q02763)
# EPHA4 (human) = EPHA4 (human) (UniProt P54764)
# Chain of RIPK2 (human) (O43353 whole entry, looked up): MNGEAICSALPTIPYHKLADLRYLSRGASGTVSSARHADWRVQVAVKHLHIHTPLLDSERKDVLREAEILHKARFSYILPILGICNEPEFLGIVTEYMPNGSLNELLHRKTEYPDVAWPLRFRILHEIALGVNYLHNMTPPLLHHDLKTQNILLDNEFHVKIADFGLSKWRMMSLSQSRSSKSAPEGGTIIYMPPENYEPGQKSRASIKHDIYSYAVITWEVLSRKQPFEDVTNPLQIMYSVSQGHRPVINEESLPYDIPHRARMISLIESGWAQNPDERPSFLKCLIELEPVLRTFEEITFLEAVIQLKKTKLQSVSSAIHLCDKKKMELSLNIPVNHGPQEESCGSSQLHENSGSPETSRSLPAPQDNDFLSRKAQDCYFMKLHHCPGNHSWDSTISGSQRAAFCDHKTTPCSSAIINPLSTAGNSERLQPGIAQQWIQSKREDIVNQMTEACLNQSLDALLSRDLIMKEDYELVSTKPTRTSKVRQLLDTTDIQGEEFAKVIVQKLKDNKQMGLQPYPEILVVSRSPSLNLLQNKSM
# Chain of NEK2 (human) (P51955 whole entry, looked up): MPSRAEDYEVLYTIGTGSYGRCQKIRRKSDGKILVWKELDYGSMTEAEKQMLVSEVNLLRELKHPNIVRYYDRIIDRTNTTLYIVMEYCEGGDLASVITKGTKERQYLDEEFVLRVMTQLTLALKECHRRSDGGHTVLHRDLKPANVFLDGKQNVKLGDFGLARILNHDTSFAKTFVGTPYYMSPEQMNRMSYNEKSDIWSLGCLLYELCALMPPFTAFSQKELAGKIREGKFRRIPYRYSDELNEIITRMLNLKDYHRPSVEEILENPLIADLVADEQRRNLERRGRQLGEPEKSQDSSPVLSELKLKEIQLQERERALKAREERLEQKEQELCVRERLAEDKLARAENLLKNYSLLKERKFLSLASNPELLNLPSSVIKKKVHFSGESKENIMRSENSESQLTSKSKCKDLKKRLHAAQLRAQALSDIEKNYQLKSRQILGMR
# Chain of ROCK1 (human) (Q13464 whole entry, looked up): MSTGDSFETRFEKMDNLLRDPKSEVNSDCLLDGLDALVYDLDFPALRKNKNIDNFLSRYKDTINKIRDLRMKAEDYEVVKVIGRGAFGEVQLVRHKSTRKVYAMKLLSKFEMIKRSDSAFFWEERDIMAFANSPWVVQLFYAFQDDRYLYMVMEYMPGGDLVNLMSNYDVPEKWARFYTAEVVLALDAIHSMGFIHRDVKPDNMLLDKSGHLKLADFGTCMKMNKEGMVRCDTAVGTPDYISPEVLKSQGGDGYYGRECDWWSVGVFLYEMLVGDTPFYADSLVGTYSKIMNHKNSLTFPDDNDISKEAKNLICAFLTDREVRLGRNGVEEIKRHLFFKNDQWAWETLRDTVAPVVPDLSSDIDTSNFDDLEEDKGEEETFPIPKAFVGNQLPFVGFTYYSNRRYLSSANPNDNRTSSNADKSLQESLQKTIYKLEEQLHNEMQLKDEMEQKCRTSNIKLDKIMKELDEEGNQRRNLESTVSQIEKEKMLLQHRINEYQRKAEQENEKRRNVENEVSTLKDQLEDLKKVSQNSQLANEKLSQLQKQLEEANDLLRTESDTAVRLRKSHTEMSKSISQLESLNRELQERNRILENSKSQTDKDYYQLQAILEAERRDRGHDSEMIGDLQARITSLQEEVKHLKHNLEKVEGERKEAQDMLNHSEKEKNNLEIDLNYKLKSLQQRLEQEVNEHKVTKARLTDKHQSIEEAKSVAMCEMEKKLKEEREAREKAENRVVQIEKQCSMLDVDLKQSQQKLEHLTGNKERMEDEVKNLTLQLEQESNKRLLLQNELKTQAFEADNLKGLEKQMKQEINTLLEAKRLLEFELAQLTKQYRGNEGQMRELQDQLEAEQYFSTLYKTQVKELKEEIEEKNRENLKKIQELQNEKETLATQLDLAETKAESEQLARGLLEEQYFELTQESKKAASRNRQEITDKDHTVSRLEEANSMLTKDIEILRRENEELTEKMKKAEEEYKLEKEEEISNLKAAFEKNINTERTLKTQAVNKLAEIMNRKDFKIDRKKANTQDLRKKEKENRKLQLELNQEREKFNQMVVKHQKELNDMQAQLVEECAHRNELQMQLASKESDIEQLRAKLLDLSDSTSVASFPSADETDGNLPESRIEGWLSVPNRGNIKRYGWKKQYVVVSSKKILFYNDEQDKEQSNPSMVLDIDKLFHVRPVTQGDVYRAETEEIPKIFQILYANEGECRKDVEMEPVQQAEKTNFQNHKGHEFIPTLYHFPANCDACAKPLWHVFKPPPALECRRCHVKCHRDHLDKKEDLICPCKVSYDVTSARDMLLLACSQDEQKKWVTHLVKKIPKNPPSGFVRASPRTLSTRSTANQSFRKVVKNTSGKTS
# Chain of PIM1 (human) (P11309 whole entry, looked up): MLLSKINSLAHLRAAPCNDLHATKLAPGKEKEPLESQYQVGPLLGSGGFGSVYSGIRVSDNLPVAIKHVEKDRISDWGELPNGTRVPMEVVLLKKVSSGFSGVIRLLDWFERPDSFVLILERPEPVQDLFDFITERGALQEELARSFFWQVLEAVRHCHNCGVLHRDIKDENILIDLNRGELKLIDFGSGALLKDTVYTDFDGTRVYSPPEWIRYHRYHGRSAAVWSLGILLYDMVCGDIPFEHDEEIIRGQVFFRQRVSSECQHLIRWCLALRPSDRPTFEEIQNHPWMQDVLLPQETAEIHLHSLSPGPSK
# Chain of MAPK14 (human) (Q16539 whole entry, looked up): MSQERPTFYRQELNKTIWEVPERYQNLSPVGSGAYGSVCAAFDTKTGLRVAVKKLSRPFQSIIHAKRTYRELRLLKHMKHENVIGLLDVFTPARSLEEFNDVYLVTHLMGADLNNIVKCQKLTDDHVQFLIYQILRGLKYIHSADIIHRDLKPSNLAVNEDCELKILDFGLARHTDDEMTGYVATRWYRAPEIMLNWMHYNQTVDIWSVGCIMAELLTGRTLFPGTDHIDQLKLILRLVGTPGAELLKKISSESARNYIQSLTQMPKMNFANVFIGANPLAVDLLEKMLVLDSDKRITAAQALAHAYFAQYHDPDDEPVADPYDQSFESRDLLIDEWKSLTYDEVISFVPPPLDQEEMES
# Chain of RPS6KA5 KD1 KD2 (human) (O75582 whole entry, looked up): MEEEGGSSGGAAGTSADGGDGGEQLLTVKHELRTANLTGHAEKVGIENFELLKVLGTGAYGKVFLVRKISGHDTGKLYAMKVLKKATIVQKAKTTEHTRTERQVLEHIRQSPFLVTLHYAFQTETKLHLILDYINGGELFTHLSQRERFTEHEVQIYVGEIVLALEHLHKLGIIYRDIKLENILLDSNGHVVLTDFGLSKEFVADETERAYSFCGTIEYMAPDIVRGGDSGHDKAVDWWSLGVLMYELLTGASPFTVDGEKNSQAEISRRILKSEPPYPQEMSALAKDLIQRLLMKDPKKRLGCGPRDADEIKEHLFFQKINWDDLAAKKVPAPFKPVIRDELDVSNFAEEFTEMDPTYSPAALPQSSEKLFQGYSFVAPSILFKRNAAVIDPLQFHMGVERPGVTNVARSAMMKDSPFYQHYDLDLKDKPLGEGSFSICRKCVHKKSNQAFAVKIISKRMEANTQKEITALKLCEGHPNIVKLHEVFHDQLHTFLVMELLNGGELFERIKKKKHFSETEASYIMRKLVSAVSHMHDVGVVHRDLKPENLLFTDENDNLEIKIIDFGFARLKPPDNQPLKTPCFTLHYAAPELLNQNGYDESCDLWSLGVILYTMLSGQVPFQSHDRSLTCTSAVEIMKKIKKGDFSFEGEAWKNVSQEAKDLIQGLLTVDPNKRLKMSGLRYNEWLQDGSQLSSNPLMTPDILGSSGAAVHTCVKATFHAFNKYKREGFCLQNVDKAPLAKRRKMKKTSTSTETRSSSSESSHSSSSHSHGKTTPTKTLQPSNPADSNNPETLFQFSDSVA
# Chain of RPS6KB1 (human) (P23443 whole entry, looked up): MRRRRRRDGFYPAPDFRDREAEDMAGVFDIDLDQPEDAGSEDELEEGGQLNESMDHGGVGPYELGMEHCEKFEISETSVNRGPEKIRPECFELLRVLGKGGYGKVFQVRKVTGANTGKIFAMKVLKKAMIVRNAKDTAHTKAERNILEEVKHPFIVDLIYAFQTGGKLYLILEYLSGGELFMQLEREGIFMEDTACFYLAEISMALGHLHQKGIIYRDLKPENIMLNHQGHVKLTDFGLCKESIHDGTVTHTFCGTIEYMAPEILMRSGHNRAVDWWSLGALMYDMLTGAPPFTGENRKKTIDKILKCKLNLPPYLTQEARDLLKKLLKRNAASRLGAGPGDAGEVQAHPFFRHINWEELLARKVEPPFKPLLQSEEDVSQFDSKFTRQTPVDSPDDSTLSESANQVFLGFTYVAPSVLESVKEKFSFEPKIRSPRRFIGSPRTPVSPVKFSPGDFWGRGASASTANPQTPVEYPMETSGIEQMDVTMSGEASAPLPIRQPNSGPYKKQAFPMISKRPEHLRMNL
compound,measurement,setting,value
CC(C)(C)c1nc2c3ccc(F)cc3c3c(=O)[nH]ccc3c2[nH]1,residual activity,ZAP70 (human),117%
same,residual activity,IGF1R (human),61%
same,residual activity,ROCK1 (human),26%
same,residual activity,PRKCI (human),73%
same,residual activity,RIPK2 (human),20%
same,residual activity,MAPK8 (human),10%
same,residual activity,MAPK13 (human),46%
same,residual activity,PIM2 (human),36%
same,residual activity,CHEK1 (human),10%
same,residual activity,PIM1 (human),49%
same,residual activity,BRSK2 (human),1%
same,residual activity,PRKCG (human),21%
same,residual activity,CDK2 CCNA2 (human),53%
same,residual activity,EPHA2 (human),96%
same,residual activity,EGFR (human),75%
same,residual activity,KDR (human),92%
same,residual activity,MAPK12 (human),46%
same,residual activity,RPS6KA1 KD1 KD2 (human),68%
same,residual activity,RPS6KA5 KD1 KD2 (human),25%
same,residual activity,FLT3 (human),25%
same,residual activity,AKT1 (human),39%
same,residual activity,NEK6 (human),48%
same,residual activity,MAP3K7 (human),12%
same,residual activity,PLK3 (human),54%
same,residual activity,FGFR1 (human),32%
same,residual activity,PRKCA (human),8%
same,residual activity,FGFR3 (human),30%
same,residual activity,MAPK14 (human),51%
same,residual activity,RAF1 (human),128%
same,residual activity,MAPKAPK5 (human),17%
same,residual activity,SRC (human),94%
same,residual activity,KIT (human),40%
same,residual activity,ALK (human),26%
same,residual activity,MAPK11 (human),25%
same,residual activity,BTK (human),83%
same,residual activity,NEK2 (human),96%
same,residual activity,PAK4 (human),78%
same,residual activity,RPS6KB1 (human),17%
same,residual activity,MAPKAPK2 (human),17%
same,residual activity,TEK (human),105%
same,residual activity,EPHA4 (human),101%
COc1ccc(C#Cc2ccc3ncc4ncn(-c5ccc(CCN)cc5)c4c3c2)cc1,residual activity,ZAP70 (human),99%
same,residual activity,IGF1R (human),66%
same,residual activity,ROCK1 (human),46%
same,residual activity,PRKCI (human),107%
same,residual activity,RIPK2 (human),78%
same,residual activity,MAPK8 (human),55%
same,residual activity,MAPK13 (human),43%
same,residual activity,PIM2 (human),24%
same,residual activity,CHEK1 (human),75%
same,residual activity,PIM1 (human),3%
same,residual activity,BRSK2 (human),57%
same,residual activity,PRKCG (human),88%
same,residual activity,CDK2 CCNA2 (human),118%
same,residual activity,EPHA2 (human),95%
same,residual activity,EGFR (human),71%
same,residual activity,KDR (human),50%
same,residual activity,MAPK12 (human),85%
same,residual activity,RPS6KA1 KD1 KD2 (human),13%
same,residual activity,RPS6KA5 KD1 KD2 (human),39%
same,residual activity,FLT3 (human),8%
same,residual activity,AKT1 (human),25%
same,residual activity,NEK6 (human),109%
same,residual activity,MAP3K7 (human),83%
same,residual activity,PLK3 (human),110%
same,residual activity,FGFR1 (human),4%
same,residual activity,PRKCA (human),94%
same,residual activity,FGFR3 (human),25%
same,residual activity,MAPK14 (human),72%
same,residual activity,RAF1 (human),94%
same,residual activity,MAPKAPK5 (human),50%
same,residual activity,SRC (human),14%
same,residual activity,KIT (human),71%
same,residual activity,ALK (human),42%
same,residual activity,MAPK11 (human),81%
same,residual activity,BTK (human),75%
same,residual activity,NEK2 (human),80%
same,residual activity,PAK4 (human),106%
same,residual activity,RPS6KB1 (human),0%
same,residual activity,MAPKAPK2 (human),78%
same,residual activity,TEK (human),5%
same,residual activity,EPHA4 (human),77%
